This note sets out measurements from the supplement of paper PMC4862054.

Test [1] deals with BT-474. The test can be described thus: normalised viability (% of control), CellTiter-Blue; higher = more viable cells (about 100 = DMSO control). The conditions noted are these: incubation time: 72 h. Put shortly: (§1)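 Plates were quality-checked by Z'-factor and normalised to vehicle (100) and a positive kill control (0). The underlying assay incubated breast cancer cell lines for 72 h on 384-well plates with compound, then added 2.5 µl CellTiter-Blue for 2 h at 37 °C and read at 560/590 nm. The value is normalised viability at a single listed concentration of the series.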

The next test relates to CAL-120. The description is as above. The conditions noted are these: incubation time: 72 h. Put shortly:
as §1

Test [2] has as its system CAL-51. Described as above. The following applies: incubation time: 72 h. Put shortly: as §1
Test [3] concerns CAL-85-1. The description is as above. The conditions noted are these: incubation time: 72 h. Put shortly: as §1
The subject of test [4] is HCC1599. Described as above. The conditions noted are these: incubation time: 72 h. Put shortly: as §1
Test [5] has as its system HCC1937. The description is as above. The conditions noted are these: incubation time: 72 h. In outline:
as §1

Another test concerns Hs578T. Described as above. The following applies: incubation time: 72 h. Put shortly:
as §1

For a further test, the system named is MDA-MB-436. Described as above. The following applies: incubation time: 72 h. In outline:
as §1

The test system of test [6] is MDA-MB-453. The description is as above. The following applies: incubation time: 72 h. Put shortly: as §1
Test [7] deals with MDA-MB-468. The description is as above. The conditions noted are these: incubation time: 72 h. In outline:
as §1

For test [8], the system named is BT-474. Nature of the test: normalised viability (% of control), CellTiter-Blue; higher = more viable cells (about 100 = DMSO control). The conditions noted are these: incubation time: 72 h. The method, then:
(§2)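 DSRT, CellTiter-Blue viability, 72 h incubation. Signal is normalised to DMSO and benzethonium chloride controls. Value is the normalised response at dose 3.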
This is another data set of the same source. On the technique in general: The colour change of resazurin is a common sign of viable cells or microbes.

For test [9], the system named is CAL-51. Described as above. The conditions noted are these: incubation time: 72 h. The method, then:
as §2
This is another data set of the same source.

In test [10] the test system is DU-4475. Described as above. The following applies: incubation time: 72 h. The protocol:
as §2

The test system of the next test is HCC1143. The description is as above. The conditions noted are these: incubation time: 72 h. The method, then:
as §2

For test [11], the system named is HCC1599. The description is as above. The following applies: incubation time: 72 h. The protocol: as §2
The source holds these as a separate data set.

Test [12] has as its system HCC1937. The description is as above. The conditions noted are these: incubation time: 72 h. The method, then:
as §2
The source holds these as a separate data set.

The test system of test [13] is HDQ-P1. The description is as above. The following applies: incubation time: 72 h. The protocol:
as §2

Another test relates to MDA-MB-231. Described as above. The conditions noted are these: incubation time: 72 h. The protocol:
as §2

Test [14] has as its system MDA-MB-468. The test is described as above. The conditions noted are these: incubation time: 72 h. The protocol:
as §2
The source holds these as a separate data set.

The next test deals with CAL-148. The test is described as above. The conditions noted are these: incubation time: 72 h. The method, then:
(§3)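 DSRT, CellTiter-Blue viability, 72 h incubation. Signal is normalised to DMSO and benzethonium chloride controls. Value is the normalised response at dose 6.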

Test [15] concerns CAL-51. The test is described as above. The following applies: incubation time: 72 h. The protocol: as §3
This is another data set of the same source.

In test [16] the test system is CAL-85-1. Described as above. The conditions noted are these: incubation time: 72 h. The method, then: as §3
The source holds these as a separate data set.

Test [17] concerns DU-4475. The description is as above. The following applies: incubation time: 72 h. The protocol: as §3
The source holds these as a separate data set.

The subject of test [18] is HDQ-P1. The description is as above. The conditions noted are these: incubation time: 72 h. The protocol: as §3
This is another data set of the same source.

The subject of test [19] is MDA-MB-453. The test is described as above. The following applies: incubation time: 72 h. The method, then:
as §3
The source holds these as a separate data set.

For test [20], the system named is CAL-51. The conditions noted are these: 72 h. In outline: (§4)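 In this assay, breast cancer cell lines spent 72 h with compound at 5 concentrations in 10-fold steps over a compound-specific 10,000-fold range. The first readout was cell death by CellTox Green fluorescence, and the second was viability by CellTiter-Glo luminescence, each normalised per plate to 0.1 % DMSO and a positive kill control. EC50 came from the dose-response curves, censored at the top concentration.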

Test [21] relates to MDA-MB-453. The following applies: 72 h. In outline:
as §4

Another test has as its system BT-549. The following applies: 72 h. Put shortly:
as §4

Several values for one entry are separate records, joined by “and”; a condition that tells them apart may be missing. Equal entries are not always repeated.

Turning to `CNNCc1ccc(C(=O)NC(C)C)cc1` [Procarbazine], the normalised viability in the test on BT-474 [1] (10000 nM) was found to be 113%; in the test with CAL-120 (10000 nM), 88.2%; in the test on CAL-51 [2] (100 nM), 96.4%; in the test with CAL-85-1 [3] (100 nM), 89.2%; with HCC1599 [4] (10000 nM), 90%; in the test on HCC1937 [5] (10000 nM) it was 81.7%. The normalised viability worked out at 114% in the test with Hs578T (10000 nM); 81.5% in the test with MDA-MB-436 (10000 nM); 109% with MDA-MB-453 [6] (100 nM); 112% with MDA-MB-468 [7] (10000 nM); 114% in the test on BT-474 [8] (100 nM); 109% with CAL-51 [9] (10 nM). The normalised viability in the test on DU-4475 [10] (10 nM) is 112%; in the test with HCC1143 (100 nM) it was 98.7%; in the test with HCC1599 [11] (100 nM) it was 94.8%; in the test with HCC1937 [12] (100 nM), 85.3%; in the test on HDQ-P1 [13] (10 nM), 128%; in the test with MDA-MB-231 (100 nM), 105%. Further, the normalised viability in the test on MDA-MB-468 [14] (100 nM) came to 102%; in the test on CAL-148 (300 nM), 101%; in the test on CAL-51 [15] (300 nM), 105%; in the test on CAL-85-1 [16] (300 nM), 100%; in the test with DU-4475 [17] (300 nM) it was 83.2%; in the test with HDQ-P1 [18] (300 nM) it was 97.5%. For the same molecule, the normalised viability with MDA-MB-453 [19] (300 nM) stood at 101%.

Consider `Cc1ccc(NC(=O)c2ccc(CN3CCN(C)CC3)cc2)cc1Nc1nccc(-c2cccnc2)n1` [Imatinib], for which the “EC50, CellTiter-Glo” value with CAL-51 [20] is 4.17 µM; in the test with MDA-MB-453 [21], > 10 µM. Also, the normalised viability with BT-474 [1] (10000 nM) is 104% and 96.8%; with CAL-120 (10000 nM), 114%; in the test on CAL-51 [2] (100 nM), 102% and 98.4%; in the test on CAL-85-1 [3] (100 nM), 90.9%; in the test on HCC1599 [4] (10000 nM), 97.8% and 103%; in the test on HCC1937 [5] (10000 nM), 88%. For the same molecule, the normalised viability is 95.3% and 109% in the test with Hs578T (10000 nM); 97.6% and 106% in the test on MDA-MB-436 (10000 nM); 104% and 99.3% in the test with MDA-MB-453 [6] (100 nM); 103% and 99.3% with MDA-MB-468 [7] (10000 nM); 103% and 126% with BT-474 [8] (100 nM); 106% and 107% in the test with CAL-51 [9] (10 nM). The normalised viability in the test on DU-4475 [10] (10 nM) was 106% and 95.3%; in the test on HCC1143 (100 nM) it was 85.9% and 82.9%; in the test with HCC1599 [11] (100 nM) it was 96.5% and 97.5%; in the test with HCC1937 [12] (100 nM), 94.5%; in the test with HDQ-P1 [13] (10 nM), 106% and 126%; in the test with MDA-MB-468 [14] (100 nM), 99.2% and 98%. Moreover, the normalised viability in the test on CAL-148 (300 nM) is 83.5% and 104%; with CAL-51 [15] (300 nM), 106% and 102%; in the test on CAL-85-1 [16] (300 nM) it was 101% and 94.4%; in the test on DU-4475 [17] (300 nM), 97.8% and 89.4%; in the test with HDQ-P1 [18] (300 nM), 74.9% and 72.5%; with MDA-MB-453 [19] (300 nM), 86.5% and 88.3%.

Turning to `Nc1ncnc2c1c(COc1cccc(Cl)c1)nn2C1CCOCC1`, the “EC50, CellTiter-Glo” value in the test with BT-549 was > 10 µM.

Regarding `Cc1cc2c(C(C)C)c(O)c(O)c(C=O)c2c(O)c1-c1c(C)cc2c(C(C)C)c(O)c(O)c(C=O)c2c1O` [Gossypol], the normalised viability in the test with BT-474 [1] (100000 nM) stood at 20.4%; in the test on CAL-120 (100000 nM) it was 3.6%; in the test on CAL-51 [2] (1000 nM), 92.1%; with CAL-85-1 [3] (1000 nM), 87.7%; in the test on HCC1599 [4] (100000 nM), 4.74%; in the test with HCC1937 [5] (100000 nM) it was 6.06%. The normalised viability in the test with Hs578T (100000 nM) was 1.54%; in the test with MDA-MB-436 (100000 nM) it was 1.2%; with MDA-MB-453 [6] (1000 nM), 105%; in the test with MDA-MB-468 [7] (100000 nM) it was 2.31%; in the test on BT-474 [8] (1000 nM) it was 113%; in the test on CAL-51 [9] (100 nM) it was 96.5%. Also, the normalised viability with DU-4475 [10] (100 nM) came out at 99.7%; with HCC1143 (1000 nM), 98.2%; in the test on HCC1599 [11] (1000 nM) it was 97%; with HCC1937 [12] (1000 nM), 91.7%; in the test on HDQ-P1 [13] (100 nM), 126%; in the test with MDA-MB-231 (1000 nM), 93.6%. In addition, the normalised viability in the test with MDA-MB-468 [14] (1000 nM) stood at 58.1%; in the test with CAL-148 (3000 nM), 114%; with CAL-51 [15] (3000 nM), 96.6%; with CAL-85-1 [16] (3000 nM) it was 80.2%; in the test with DU-4475 [17] (3000 nM), 49.2%; with HDQ-P1 [18] (3000 nM) it was 105%. The normalised viability in the test with MDA-MB-453 [19] (3000 nM) stood at 62.9%.
